Source: patent US20170281541A1, “LIPOSOME-BASED MUCUS-PENETRATING PARTICLES FOR MUCOSAL DELIVERY” (The Johns Hopkins University, priority 2014, published 2017)

Experiment: CEST imaging in vivo (diaCEST MRI) after intravaginal administration
Parameters: species or system mice
Description: Naturally cycling, estrus phase female mice were used for the intravaginal distribution study and the in vivo CEST imaging studies. In brief, female CF-1 mice (6-8 weeks old, Harlan, Indianapolis, Ind.) were housed in a reversed light cycle facility (12-hour light/12-hour dark). Mice were selected for external estrus appearance, which was confirmed upon dissection. All animal studies were performed in accordance to protocols approved by the Institutional Animal Care and Use Committee (IACUC) at the Johns Hopkins University.
Mice were anesthetized using isoflurane and positioned in a 11.7 T horizontal bore Bruker Biospec scanner (Bruker Biosciences, Billerica, Mass.). Twenty microliters of BA-loaded 7 mol %-PEG liposome suspension (4 mg BA/mL) or free BA solution at a equivalent dose were administered intravaginally via a customized catheter. Imaging was performed before and at 30 min-intervals after the intravaginal administration up to 1.5 h. Axial images were acquired at ˜2 mm above the tip of the catheter that was inserted ˜5 mm deep from the vaginal opening. […]
MR images were processed using custom-written Matlab scripts with the CEST contrast quantified by calculating the asymmetry in the magnetization transfer ratio (MTRasym) using MTRasym=(S−Δω−S+Δω)/S0 for NH protons at the frequency offset of BA from water (Δω)=5 ppm. […]

O=C1CC(=O)NC(=O)N1 [unencapsulated BA, barbituric acid]
vaginal retention time / duration of CEST contrast (intravaginal, mice, imaging up to 1.5 h): ~30 min | vaginal retention by diaCEST MRI (liposomal vs unencapsulated BA): much shorter vaginal retention time
